# Results reported in PMC11352258, “The Influence of Betulin and Its Derivatives on Selected Colorectal Cancer Cell Lines’ Viability and Their Antioxidant Systems” (Cells, 2024).
# Values joined by “and” are separate entries in the source; they are usually repeats but may differ in a detail not shown here. Equal values may be shown once.
# Assays:
# RKO cells [1] = assay: MTT cytotoxicity assay, RKO; details: 24 h; for viability at 10 µg/mL / IC50: Homo sapiens; for IC50: read-out: IC50 value
# Protocol: (§1) Six colorectal cancer cell lines, RKO, HT29, DLD-1, HCT116, Caco2 and SW1116 (CRL-2577, HTB-38, CCL-221, CCL-247, HTB-37, CCL-233; ATCC, Manassas, VA, USA, respectively, for CRC lines), and one normal cell line, CCD-841CoN (CRL-1790, ATCC, USA), were routinely cultured at 37 °C in a 5% CO2 incubator (Direct Heat CO2; Thermo Scientific, Waltham, MA, USA) in cell line-appropriate culture medium according to the manufacturer’s recommendations. Eagle’s minimum essential medium (EMEM) was used to culture RKO, Caco2 and CCD-841CoN lines, while McCoy’s 5A medium was used for HT29 and HCT116 lines. DLD-1 cells were grown in RPMI-1640 medium, whereas SW1116 cells were maintained in Leibovitz’s L-15 medium. All culture media were supplemented with 10% fetal bovine serum (EuroClone, Milan, Italy), and gentamycin at the concentration […] (BioWhittaker, Lonza, Basel, Switzerland) was also applied to prevent culture contamination.
# (§2) For this purpose, cells were exposed to the test compound for 24 h at concentrations of 0.1, 1, 10, 20, 50 and 100 μg/mL. Control cells were not treated with the compounds. MTT (0.25 mg/mL) was then added to the cultures and incubated for 3 h at 37 °C. After a time, the cells were washed with phosphate buffered saline (PBS), and next, formazan dye was dissolved in 100 μL of dimethyl sulfoxide (Sigma-Aldrich, St Louis, MO, USA). Absorbance was measured at 540 nm using a Wallac 1420 VICTOR microplate reader (PerkinElmer, Waltham, MA, USA).
# HT29 cells = assay: MTT cytotoxicity assay, HT29; assay type: cell-based; details: Homo sapiens, HT-29; HT29, MTT, 24 h; read-out: IC50 value
# Description: (§3) Control cells were not treated with the compounds.
# DLD-1 cells = assay: MTT cytotoxicity assay, DLD-1; assay type: cell-based; details: Homo sapiens; DLD-1, MTT, 24 h; read-out: IC50 value
# Description: as §3
# HCT116 cells = assay: MTT cytotoxicity assay, HCT116; assay type: cell-based; details: Homo sapiens; HCT 116, MTT, 24 h; read-out: IC50 value
# Description: as §3
# Caco2 cells = assay: MTT cytotoxicity assay, Caco2; assay type: cell-based; details: Homo sapiens, Caco-2; Caco2, MTT, 24 h; read-out: IC50 value
# SW1116 cells [2] = assay: MTT cytotoxicity assay, SW1116; details: for viability at 10 µg/mL / IC50: Homo sapiens, SW 1116, 24 h; for IC50: read-out: IC50 value
# Protocol: as §1, §2
# in vitro = assay type: cell-based; details: human
# Description: as §3
# CCD-841CoN cells = assay: cells; assay type: cell-based; details: Homo sapiens; CCD-841CoN normal cells, MTT, 24 h; read-out: IC50 value
# Description: as §3
# RKO cells [3] = assay: Lipid peroxidation, MDA assay, RKO; assay type: cell-based; details: 10 µg/mL, 24 h
# Protocol: (§4) In addition, two colorectal cancer cell lines, RKO and SW1116, were distinguished based on a different response to the EB5 derivative. […] Untreated cells were used as a negative control. Three biological replicates were performed. To examine the antioxidant capacity of the cells as well as lipid peroxidation and to evaluate the activity of antioxidant enzymes, the cells were suspended in lysis buffer (containing 4 mg of […]™ Protease Inhibitor Cocktail and 10 µL of Phosphatase Inhibitor Cocktail 3 in 1 mL of PBS; Sigma-Aldrich, St Louis, MO, USA). Subsequently, the cells were placed in liquid nitrogen for 30 min, followed by storage at −80 °C until further analysis. To assess the level of lipid peroxidation, the Malondialdehyde Assay Kit (Aoxre BioSciences, Burlingame, CA, USA) was used, according to the manufacturer’s recommendations.
# SW1116 cells [4] = assay: Lipid peroxidation, MDA assay, SW1116; assay type: cell-based; details: SW1116, 10 µg/mL, 24 h
# Protocol: as §4
# [5] = system: superoxide dismutase (SOD) activity in RKO cells; assay: SOD activity in RKO cells; assay type: cell-based; details: 10 µg/mL, 24 h
# Protocol: (§5) In addition, two colorectal cancer cell lines, RKO and SW1116, were distinguished based on a different response to the EB5 derivative. To perform subsequent analyses, the selected CRC lines were treated with EB5 derivative at a concentration of 10 µg/mL for 24 h. Untreated cells were used as a negative control. Three biological replicates were performed.
# (§6) To examine the antioxidant capacity of the cells as well as lipid peroxidation and to evaluate the activity of antioxidant enzymes, the cells were suspended in lysis buffer (containing 4 mg of […]™ Protease Inhibitor Cocktail and 10 µL of Phosphatase Inhibitor Cocktail 3 in 1 mL of PBS; Sigma-Aldrich, St Louis, MO, USA). Subsequently, the cells were placed in liquid nitrogen for 30 min, followed by storage at −80 °C until further analysis.
# (§7) Superoxide dismutase (SOD), glutathione peroxidase (GPx) and catalase (CAT) activities were assessed using a commercially purchased Cayman Chemicals Superoxide Dismutase Assay Kit, a Cayman Chemicals Glutathione Peroxidase Assay Kit and a Catalase Assay Kit (Cayman Chemicals, Ann Arbor, MI, USA), respectively, according to the manufacturer’s recommendations and based on a previous study. […] The level of change in absorbance was measured spectrophotometrically at the appropriate wavelength for the assay, i.e., for SOD in the range 440–460 nm, for GPx at 340 nm and for CAT at 540 nm.
# [6] = system: catalase (CAT) activity in RKO cells; assay: CAT activity in RKO cells; assay type: cell-based; details: 10 µg/mL, 24 h
# Protocol: as §5, §6, §7
# [7] = system: catalase (CAT) activity in SW1116 cells; assay: CAT activity in SW1116 cells; assay type: cell-based; details: SW1116, 10 µg/mL, 24 h
# Protocol: as §5, §6
# Superoxide dismutase (SOD), glutathione peroxidase (GPx) and catalase (CAT) activities were assessed using a commercially purchased Cayman Chemicals Superoxide Dismutase Assay Kit, a Cayman Chemicals Glutathione Peroxidase Assay Kit and a Catalase Assay Kit (Cayman Chemicals, Ann Arbor, MI, USA), respectively, according to the manufacturer’s recommendations and based on a previous study. The cell supernatant from previously prepared cell lysates of the tested lines provided material for further analyses. The level of change in absorbance was measured spectrophotometrically at the appropriate wavelength for the assay, i.e., for SOD in the range 440–460 nm, for GPx at 340 nm and for CAT at 540 nm.
# [8] = system: SOD2 gene expression in RKO cells; assay: SOD2 mRNA, real-time RT-qPCR, RKO; assay type: cell-based; details: 10 µg/mL, 24 h
# Protocol: as §5
# (§8) Total RNA from treated cells was extracted using TRIzol reagent (Sigma-Aldrich, St Louis, MO, USA) according to the manufacturer’s instructions. The obtained RNA was assessed qualitatively and quantitatively by agarose gel electrophoresis and by spectrophotometric measurement using MaestroNano MN-913 (MaestroGen Inc., Las Vegas, NV, USA), respectively. The obtained extracts provided the starting material for the assessment of genes changes at the mRNA level.
# (§9) Changes in the expression of SOD1, SOD2, CAT and GPX3 genes involved in antioxidant systems were assessed by real-time RT-qPCR using a LightCycler® 480 System apparatus (Roche, Basel, Switzerland). A commercially purchased GoTaq® 1-Step RT-qPCR System (Promega, Madison, WI, USA) was used, while the primers and reaction conditions were the same as in the previous study performed by Kruszniewska-Rajs et al.. GAPDH was used as the reference gene. The mRNA expression level studied genes were then determined by the 2^−ΔCt relative quantification method. All samples were tested in triplicate. The specificity of the reaction was evaluated based on the melting temperature curve, as well as using electrophoresis of the amplification products in a 2% agarose gel.
# [9] = system: SOD2 gene expression in SW1116 cells; assay: SOD2 mRNA, real-time RT-qPCR, SW1116; assay type: cell-based; details: SW1116, 10 µg/mL, 24 h
# Protocol: as §5, §8, §9
# [10] = system: CAT gene expression in RKO cells; assay: CAT mRNA, real-time RT-qPCR, RKO; assay type: cell-based; details: 10 µg/mL, 24 h
# Protocol: as §5, §8, §9
# RKO cells [11] = assay: Total antioxidant capacity (ABTS+), RKO; assay type: cell-based; details: 10 µg/mL, 24 h
# Protocol: as §5, §6
# The ABTS+ radical cation was used to assess the total antioxidant capacity (TAC) of the tested cells. The principle of the method is based on the reduction of the formed blue-green chromophore ABTS+ as a result of the reaction of ABTS (Sigma-Aldrich, St Louis, MO, USA) with potassium persulphate (Sigma-Aldrich, St Louis, MO, USA). The degree of decolorization of the ABTS+ radical cation depends on the antioxidant activity of the cells and is determined as a function of concentration and time in relation to Trolox reactivity (TEAC-Trolox equivalent antioxidant capacity).
# [12] = system: superoxide dismutase (SOD) activity in SW1116 cells; assay: SOD activity in SW1116 cells; assay type: cell-based; details: SW1116, 10 µg/mL, 24 h
# Protocol: as §5, §6, §7
# [13] = system: SOD1 gene expression in RKO cells; assay: SOD1 mRNA, real-time RT-qPCR, RKO; assay type: cell-based; details: 10 µg/mL, 24 h
# Protocol: as §5, §8, §9
# [14] = system: SOD1 gene expression in SW1116 cells; assay: SOD1 mRNA, real-time RT-qPCR, SW1116; assay type: cell-based; details: SW1116, 10 µg/mL, 24 h
# Protocol: as §5, §8, §9
# [15] = system: CAT gene expression in SW1116 cells; assay: CAT mRNA, real-time RT-qPCR, SW1116; assay type: cell-based; details: SW1116, 10 µg/mL, 24 h
# Protocol: as §5, §8, §9
Structure (SMILES),viability at 10 µg/mL (RKO cells [1]) [%],IC50 (RKO cells [1]),IC50 (HT29 cells),IC50 (DLD-1 cells),IC50 (HCT116 cells),IC50 (Caco2 cells),viability at 10 µg/mL (SW1116 cells [2]) [%],IC50 (SW1116 cells [2]),IC50 (CCD-841CoN cells),increase in MDA levels compared to the control cells (RKO cells [3]),MDA level compared to the control (SW1116 cells [4]),catalase activity compared to the control [7],SOD2 gene expression vs. cisplatin [9],further results
"C#CC(=O)OC[C@]12CC[C@@H](C(=C)C)[C@@H]1[C@H]1CC[C@@H]3[C@@]4(C)CC[C@H](O)C(C)(C)[C@@H]4CC[C@@]3(C)[C@]1(C)CC2 [EB5, 28-propynylobetulin]",≥ 50,12.2 µg/mL and 24.6 µM,8.25 µg/mL and 16.7 µM,11.1 µg/mL and 22.4 µM,16.7 µg/mL and 33.7 µM,16.9 µg/mL and 34.2 µM,≥ 50,34.4 µg/mL and 69.5 µM,> 100 µg/mL and > 202 µM,about 98.0%,did not cause changes,did not cause changes,Decreased SOD2 gene expression,"viability at 24 h, 100 μg/mL (in vitro): ≥ 50%; SOD activity compared to cells treated with betulin [5]: modest increase; CAT activity compared to the betulin-treated cells [6]: slight decrease; SOD2 gene expression vs. cisplatin [8]: significant decrease in SOD2 gene expression; SOD2 gene expression vs. 5FU [9]: Decreased SOD2 gene expression; CAT gene expression vs. 5FU [10]: significant increase in expression; CAT gene expression vs. cisplatin [10]: significant decrease in expression"
"C=C(C)[C@@H]1CC[C@]2(CO)CC[C@]3(C)[C@H](CC[C@@H]4[C@@]5(C)CC[C@H](O)C(C)(C)[C@@H]5CC[C@]43C)[C@@H]12 [Betulin, lup-20(29)-ene-3β,28-diol]",≥ 50,11.2 µg/mL and 25.2 µM,8.49 µg/mL and 20.1 µM,4.29 µg/mL and 10.2 µM,4.63 µg/mL and 11 µM,11.2 µg/mL and 26.5 µM,≥ 50,9.77 µg/mL and 23.1 µM,5.26 µg/mL and 12.4 µM,about 73.1%,did not cause changes,did not cause changes,Decreased SOD2 gene expression,"decrease in the viability (RKO cells [1]; 10 µg/mL): ≤ 50%; decrease in the viability (SW1116 cells [2]; SW1116, 10 µg/mL, 24 h): ≤ 50%; reduction in TAC compared to the control cells (RKO cells [11]): about 26.4%; increase in SOD activity compared to the untreated cells [12]: about 32.3%; SOD1 gene expression vs. cisplatin-treated cells [13]: decrease in SOD1 gene expression; SOD1 gene expression vs. EB5 derivative [14]: statistically significant difference; SOD1 gene expression vs. cisplatin [14]: statistically significant difference; SOD1 gene expression vs. non-treated cells [14]: statistically significant decrease in mRNA expression; SOD1 gene expression vs. non-treated cells ([14]; listed as B): statistically significant difference; CAT gene expression vs. untreated cells [10]: No statistically significant changes; CAT gene expression vs. EB5 derivative [15]: decrease in expression was higher; CAT gene expression vs. cisplatin [15]: decrease in expression was higher; CAT gene expression vs. untreated cells [15]: statistically significant decrease in CAT gene expression"
